Experimental data from patent US8952024B2, “Herbicidal pyrimidone derivatives” (E I du Pont de Nemours and Company, priority 2009, dated 2015).

How the values were obtained:
Assay type in all cases: in vivo
[1] = test system: barnyardgrass (Echinochloa crus-galli); assay: Test A pre-/postemergence plant response
How it was run: (§1)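 Formulated test chemicals (non-phytotoxic solvent, surfactant) were sprayed onto soil right after planting and simultaneously onto young plants at one to two leaves, 2 to 10 cm tall. Plants stayed in the greenhouse about ten days; injury was then visually scored against untreated controls, from 0 (no effect) to 100 (complete control).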

[2] = test system: corn (Zea mays); assay: Test A pre-/postemergence plant response
How it was run: as §1

[3] = test system: giant foxtail (Setaria faberii); assay: Test A pre-/postemergence plant response
How it was run: as §1

[4] = test system: large crabgrass (Digitaria sanguinalis); assay: Test A pre-/postemergence plant response
How it was run: as §1

[5] = test system: morningglory (Ipomoea spp.); assay: Test A pre-/postemergence plant response
How it was run: as §1

[6] = test system: pigweed (Amaranthus retroflexus); assay: Test A pre-/postemergence plant response
How it was run: as §1

[7] = test system: velvetleaf (Abutilon theophrasti); assay: Test A pre-/postemergence plant response
How it was run: as §1

[8] = test system: wheat (Triticum aestivum); assay: Test A pre-/postemergence plant response
How it was run: as §1

[9] = test system: barnyardgrass (Echinochloa crus-galli); assay: Test B flooded paddy test; conditions: for Plant response rating, Flood, Barnyardgrass: 250 g ai/ha, flooded paddy test, visual rating on 0 to 100 scale (0 no effect, 100 complete control) after 13 to 15 days; for Plant response rating, Barnyardgrass: Flood (flooded paddy test), 13 to 15 days; for Barnyardgrass plant response rating: Flood, 31 g ai/ha, scale 0 to 100 (0 no effect, 100 complete control)
How it was run: (§2)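 Visual scores run from 0 (no effect) to 100 (complete control), assigned by comparison with controls 13 to 15 days after treatment. Test compounds went straight into water standing 3 cm above the soil, around plants at the 2-leaf stage kept in a greenhouse.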

[10] = test system: ducksalad (Heteranthera limosa); assay: Test B flooded paddy test; conditions: for Plant response rating, Flood, Ducksalad: 250 g ai/ha, flooded paddy test, visual rating on 0 to 100 scale (0 no effect, 100 complete control) after 13 to 15 days; for Plant response rating, Ducksalad: Flood (flooded paddy test), 13 to 15 days; for Ducksalad plant response rating: Flood, 31 g ai/ha, scale 0 to 100 (0 no effect, 100 complete control)
How it was run: as §2

[11] = test system: rice (Oryza sativa); assay: Test B flooded paddy test; conditions: for Plant response rating, Flood, Rice: 250 g ai/ha, flooded paddy test, visual rating on 0 to 100 scale (0 no effect, 100 complete control) after 13 to 15 days; for Plant response rating, Rice: Flood (flooded paddy test), 13 to 15 days; for Rice plant response rating: Flood, 31 g ai/ha, scale 0 to 100 (0 no effect, 100 complete control)
How it was run: as §2

[12] = test system: umbrella sedge (Cyperus difformis); assay: Test B flooded paddy test; conditions: for Plant response rating, Flood, Sedge, Umbrella: 250 g ai/ha, flooded paddy test, visual rating on 0 to 100 scale (0 no effect, 100 complete control) after 13 to 15 days; for Plant response rating, Sedge, Umbrella: Flood (flooded paddy test), 13 to 15 days; for Sedge, Umbrella plant response rating: Flood, 31 g ai/ha, scale 0 to 100 (0 no effect, 100 complete control)
How it was run: as §2

[13] = Postemergence, 125 g ai/ha, 0 to 100 scale where 0 is no effect and 100 is complete control
[14] = Postemergence, 500 g ai/ha, 0 to 100 scale, 0 = no effect, 100 = complete control, approx. ten days
[15] = Preemergence, 125 g ai/ha, 0 to 100 scale, 0 = no effect, 100 = complete control
[16] = Preemergence, 500 g ai/ha, visual injury, 0 to 100 scale (0 no effect, 100 complete control), approx. ten days
[17] = 62 g ai/ha, scale of 0 to 100 where 0 is no effect and 100 is complete control
[18] = 125 g ai/ha, scale 0 to 100, 0 is no effect, 100 is complete control
[19] = Preemergence, 500 g ai/ha, 0 to 100 scale, 0 = no effect, 100 = complete control

O=C1CCCC(O)=C1C(=O)c1cnc(-c2cccc(Cl)c2)n(CC2CCCO2)c1=O (stereo not drawn) [Compound 142]
Plant response rating, Barnyardgrass [1, 13]: 70 | Plant response rating, Barnyardgrass [1, 14]: 90 | Plant response rating, Barnyardgrass [1, 15]: 10 | Plant response rating, Barnyardgrass [1, 16]: 80 | Plant response rating, Corn [2, 13]: 0 | Plant response rating, Corn [2, 14]: 20 | Plant response rating, Corn [2, 15]: 0 | Plant response rating, Corn [2, 16]: 0 | Plant response rating, Foxtail, Giant [3, 13]: 30 | Plant response rating, Foxtail, Giant [3, 14]: 80 | Plant response rating, Foxtail, Giant [3, 15]: 0 | Plant response rating, Foxtail, Giant [3, 16]: 20 | Plant response rating, Crabgrass, Large [4, 13]: 70 | Plant response rating, Crabgrass, Large [4, 14]: 90 | Plant response rating, Crabgrass, Large [4, 15]: 30 | Plant response rating, Crabgrass, Large [4, 16]: 80 | Plant response rating, Morningglory [5, 13]: 100 | Plant response rating, Morningglory [5, 14]: 100 | Plant response rating, Morningglory [5, 15]: 0 | Plant response rating, Morningglory [5, 16]: 50 | Plant response rating, Pigweed [6, 13]: 90 | Plant response rating, Pigweed [6, 14]: 100 | Plant response rating, Pigweed [6, 15]: 90 | Plant response rating, Pigweed [6, 16]: 100 | Plant response rating, Velvetleaf [7, 13]: 100 | Plant response rating, Velvetleaf [7, 14]: 100 | Plant response rating, Velvetleaf [7, 15]: 20 | Plant response rating, Velvetleaf [7, 16]: 60 | Plant response rating, Wheat [8, 13]: 0 | Plant response rating, Wheat [8, 14]: 20 | Plant response rating, Wheat [8, 15]: 0 | Plant response rating, Wheat [8, 16]: 0 | Plant response rating, Flood, Barnyardgrass [9]: 10 | Plant response rating, Barnyardgrass [9, 17]: 0 | Plant response rating, Barnyardgrass [9, 18]: 0 | Barnyardgrass plant response rating [9]: 0 | Plant response rating, Flood, Ducksalad [10]: 80 | Plant response rating, Ducksalad [10, 17]: 0 | Plant response rating, Ducksalad [10, 18]: 80 | Ducksalad plant response rating [10]: 0 | Plant response rating, Flood, Rice [11]: 0 | Plant response rating, Rice [11, 17]: 0 | Plant response rating, Rice [11, 18]: 0 | Rice plant response rating [11]: 0 | Plant response rating, Flood, Sedge, Umbrella [12]: 80 | Plant response rating, Sedge, Umbrella [12, 17]: 0 | Plant response rating, Sedge, Umbrella [12, 18]: 65 | Sedge, Umbrella plant response rating [12]: 0

Cc1ccc(Cl)cc1-n1c(-c2cccc(Br)c2)ncc(C(=O)C2=C(O)CCCC2=O)c1=O [Compound 144]
Plant response rating, Barnyardgrass [1, 13]: 70 | Plant response rating, Barnyardgrass [1, 14]: 100 | Plant response rating, Barnyardgrass [1, 15]: 0 | Plant response rating, Barnyardgrass [1, 16]: 20 | Plant response rating, Corn [2, 13]: 0 | Plant response rating, Corn [2, 14]: 30 | Plant response rating, Corn [2, 15]: 0 | Plant response rating, Corn [2, 16]: 0 | Plant response rating, Foxtail, Giant [3, 13]: 40 | Plant response rating, Foxtail, Giant [3, 14]: 90 | Plant response rating, Foxtail, Giant [3, 15]: 0 | Plant response rating, Foxtail, Giant [3, 16]: 10 | Plant response rating, Crabgrass, Large [4, 13]: 50 | Plant response rating, Crabgrass, Large [4, 14]: 90 | Plant response rating, Crabgrass, Large [4, 15]: 10 | Plant response rating, Crabgrass, Large [4, 16]: 30 | Plant response rating, Morningglory [5, 13]: 30 | Plant response rating, Morningglory [5, 14]: 70 | Plant response rating, Morningglory [5, 15]: 0 | Plant response rating, Morningglory [5, 16]: 10 | Plant response rating, Pigweed [6, 13]: 80 | Plant response rating, Pigweed [6, 14]: 90 | Plant response rating, Pigweed [6, 15]: 0 | Plant response rating, Pigweed [6, 16]: 90 | Plant response rating, Velvetleaf [7, 13]: 100 | Plant response rating, Velvetleaf [7, 14]: 100 | Plant response rating, Velvetleaf [7, 15]: 20 | Plant response rating, Velvetleaf [7, 19]: 70 | Plant response rating, Wheat [8, 13]: 0 | Plant response rating, Wheat [8, 14]: 0 | Plant response rating, Wheat [8, 15]: 0 | Plant response rating, Wheat [8, 19]: 0 | Plant response rating, Flood, Barnyardgrass [9]: 20 | Plant response rating, Barnyardgrass [9, 17]: 0 | Plant response rating, Barnyardgrass [9, 18]: 0 | Barnyardgrass plant response rating [9]: 0 | Plant response rating, Flood, Ducksalad [10]: 100 | Plant response rating, Ducksalad [10, 17]: 60 | Plant response rating, Ducksalad [10, 18]: 75 | Ducksalad plant response rating [10]: 50 | Plant response rating, Flood, Rice [11]: 25 | Plant response rating, Rice [11, 17]: 20 | Plant response rating, Rice [11, 18]: 20 | Rice plant response rating [11]: 15 | Plant response rating, Flood, Sedge, Umbrella [12]: 100 | Plant response rating, Sedge, Umbrella [12, 17]: 65 | Plant response rating, Sedge, Umbrella [12, 18]: 95 | Sedge, Umbrella plant response rating [12]: 50

CCn1c(-c2cccc(Cl)c2)ncc(C(=O)C2=C(O)CCCC2=O)c1=O [Compound 145]
Plant response rating, Barnyardgrass [1, 13]: 70 | Plant response rating, Barnyardgrass [1, 14]: 100 | Plant response rating, Barnyardgrass [1, 15]: 20 | Plant response rating, Barnyardgrass [1, 16]: 90 | Plant response rating, Corn [2, 13]: 30 | Plant response rating, Corn [2, 14]: 40 | Plant response rating, Corn [2, 15]: 0 | Plant response rating, Corn [2, 16]: 20 | Plant response rating, Foxtail, Giant [3, 13]: 60 | Plant response rating, Foxtail, Giant [3, 14]: 80 | Plant response rating, Foxtail, Giant [3, 15]: 30 | Plant response rating, Foxtail, Giant [3, 16]: 70 | Plant response rating, Crabgrass, Large [4, 13]: 70 | Plant response rating, Crabgrass, Large [4, 14]: 90 | Plant response rating, Crabgrass, Large [4, 15]: 50 | Plant response rating, Crabgrass, Large [4, 16]: 100 | Plant response rating, Morningglory [5, 13]: 90 | Plant response rating, Morningglory [5, 14]: 90 | Plant response rating, Morningglory [5, 15]: 0 | Plant response rating, Morningglory [5, 16]: 80 | Plant response rating, Pigweed [6, 13]: 100 | Plant response rating, Pigweed [6, 14]: 100 | Plant response rating, Pigweed [6, 15]: 70 | Plant response rating, Pigweed [6, 16]: 100 | Plant response rating, Velvetleaf [7, 13]: 100 | Plant response rating, Velvetleaf [7, 14]: 100 | Plant response rating, Velvetleaf [7, 15]: 90 | Plant response rating, Velvetleaf [7, 19]: 100 | Plant response rating, Wheat [8, 13]: 0 | Plant response rating, Wheat [8, 14]: 0 | Plant response rating, Wheat [8, 15]: 0 | Plant response rating, Wheat [8, 19]: 20 | Plant response rating, Flood, Barnyardgrass [9]: 25 | Plant response rating, Barnyardgrass [9, 17]: 0 | Plant response rating, Barnyardgrass [9, 18]: 0 | Barnyardgrass plant response rating [9]: 0 | Plant response rating, Flood, Ducksalad [10]: 80 | Plant response rating, Ducksalad [10, 17]: 80 | Plant response rating, Ducksalad [10, 18]: 80 | Ducksalad plant response rating [10]: 80 | Plant response rating, Flood, Rice [11]: 0 | Plant response rating, Rice [11, 17]: 0 | Plant response rating, Rice [11, 18]: 0 | Rice plant response rating [11]: 0 | Plant response rating, Flood, Sedge, Umbrella [12]: 80 | Plant response rating, Sedge, Umbrella [12, 17]: 0 | Plant response rating, Sedge, Umbrella [12, 18]: 60 | Sedge, Umbrella plant response rating [12]: 0
